From patent US8486900B2, “Method for preparing a Centella asiatica extract rich in madecassoside and in terminoloside” (Bayer Consumer Care AG, priority 2002, dated 2013)

Legend:
IL-1α = experiment: IFN-γ-induced intracellular IL-1α production by normal human keratinocytes; assay type: cell-based; conditions: for IL-1α (intracellular): K02-1H6, IFN-γ 1000 U/ml, 48 h + 24 h
Experimental: In order to evaluate the anti-inflammatory activity of terminoloside, of madecassoside and of the mixture of heterosides, we studied the modulatory effects of these three active agents with respect to the production and release of proinflammatory epidermal cytokines (IL-1α, IL-8, PGE-2) by human keratinocytes in culture, subjected to an irritative stress induced either with interferon-gamma (IFN-γ) or with PMA. Human keratinocytes were isolated from human skin. The cells were cultured in serum-free KGM medium (Keratinocyte Growth Medium, sold by the company Clonetics®), according to the usual techniques set up in the laboratory, at 37° C. in a humid air-CO2 (95%-5%) atmosphere. The cells were seeded into 25 cm^2 flasks and passaged regularly before reaching confluency. The principle of the assay is based on evaluating the production of proinflammatory cytokines by human keratinocytes, in response to an irritative stress. The method is based on measuring the intracellular amount of IL-1α and of the amounts of IL-8 and of PGE-2 released into the extracellular medium by keratinocytes cultured in the absence and in the presence of the products being studied, and stimulated even with interferon-gamma (IFN-γ) or with PMA (phorbol-12-myristate-13-acetate).
The study was carried out on keratinocytes isolated from foreskin of young children (strain K02-1H6).
1. Treatment of the cells for 48 h with the product being studied before induction of the irritative stress; 2. induction of the irritative stress: IFN-γ (1000 U/ml); 3. incubation of the “activated” cells, for 24 h, in the presence of the product being studied; 4. assay: IL-8 (extracellular) and IL-1α (intracellular). Cellular protein assay.
Tables 34 to 36 below group together the intracellular amounts of IL-1α after activation of the cells (+IFN-γ), and the basal amount (−IFN-γ). The IFN-γ-induced production of IL-1α and the anti-inflammatory activity (AIA) were calculated for each concentration according to: Il-1α production=IL-1α(+IFN)−IL-1α(−IFN) AIA=[(IL-1α production(control cells)−IL-1α production(treated cells)/IL-1α production(control cells)]×100

Question: With `CC1OC(O[C@@H]2C(CO)OC(OCC3OC(OC(=O)C4CC(C)(C)CC5C6=CCC7C(CC(O)C8C(C)(CO)C(O)C(O)CC78C)C6(C)CCC45)[C@@H](O)C(O)[C@@H]3O)[C@@H](O)C2O)[C@@H](O)C(O)[C@H]1O` (stereo partly drawn) [Terminoloside, 1-[O-α-L-rhamnopyranosyl-(1-4)-O-β-glucopyranosol-(1-6)]-O-β-D-glucopyranose 2α,3β,6β,23-tetrahydroxyolea-12-en-28-oate] as the compound, how does the “IL-1α production (+IFN minus −IFN)” value (IL-1α; 0.1 mg/ml) read?
Answer: Its value is 6.07.

Question: And the “IL-1α production (+IFN minus −IFN)” value (IL-1α; 0.25 mg/ml)?
Answer: The value was 5.37.

Question: And the “IL-1α production (+IFN minus −IFN)” value (IL-1α; 0.5 mg/ml)?
Answer: Its value is 4.60.

Question: And the “IL-1α production (+IFN minus −IFN)” value (IL-1α; 1 mg/ml)?
Answer: The value was 2.31.

Question: And the inhibition at 100 µg/mL (IL-1α; Homo sapiens, Keratinocyte, IFN-γ 1000 U/ml, 0.1 mg/ml, read-out: Anti-inflammatory activity (%), IL-1α)?
Answer: Its inhibition at 100 µg/mL is 17%.

Question: What about the inhibition at 250 µg/mL (IL-1α; Homo sapiens, Keratinocyte, IFN-γ 1000 U/ml, 0.25 mg/ml, read-out: Anti-inflammatory activity (%), IL-1α) of the same compound?
Answer: The inhibition at 250 µg/mL was 27%.

Question: And the inhibition at 500 µg/mL (IL-1α; Homo sapiens, Keratinocyte, IFN-γ 1000 U/ml, 0.5 mg/ml, read-out: Anti-inflammatory activity (%), IL-1α)?
Answer: The inhibition at 500 µg/mL was 37%.

Question: What about the inhibition at 1000 µg/mL (IL-1α; Homo sapiens, Keratinocyte, IFN-γ 1000 U/ml, 1 mg/ml, read-out: Anti-inflammatory activity (%), IL-1α) of the same compound?
Answer: Its inhibition at 1000 µg/mL is 68%.

Question: What about the “IL-1α (intracellular)” value (IL-1α; 0.1 mg/ml) of the same compound?
Answer: The value was 8.78 pg/μg prot.

Question: What about the “IL-1α (intracellular)” value (IL-1α; 0.25 mg/ml) of the same compound?
Answer: Its value is 8.08 pg/μg prot.

Question: What about the “IL-1α (intracellular)” value (IL-1α; 0.5 mg/ml) of the same compound?
Answer: The value was 7.31 pg/μg prot.

Question: What about the “IL-1α (intracellular)” value (IL-1α; 1 mg/ml) of the same compound?
Answer: The value was 5.02 pg/μg prot.

Question: What about the “solubility” value (Solubility) of the same compound?
Answer: Its value is “water-soluble”.
